This is an account of results in ChEMBL document CHEMBL1151887 (Bioorg Med Chem, 2009).

Experiment [1] deals with T1, Adenosine receptor A1 (Homo sapiens) (UniProt P30542).
T1 sequence (whole entry): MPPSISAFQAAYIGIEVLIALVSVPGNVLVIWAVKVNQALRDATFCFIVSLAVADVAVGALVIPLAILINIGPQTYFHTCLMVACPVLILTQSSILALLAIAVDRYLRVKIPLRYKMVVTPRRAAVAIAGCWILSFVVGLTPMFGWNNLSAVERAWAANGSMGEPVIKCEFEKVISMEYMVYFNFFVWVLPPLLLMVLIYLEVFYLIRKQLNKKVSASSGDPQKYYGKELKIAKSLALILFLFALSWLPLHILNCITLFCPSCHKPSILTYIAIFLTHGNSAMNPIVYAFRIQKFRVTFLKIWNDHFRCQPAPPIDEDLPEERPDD
Put plainly: Displacement of [3H]NECA from human recombinant adenosine A1 receptor expressed in CHO cells at 10 uM by liquid scintillation counting. The format is cell-based.

For experiment [2], the target named is T2, Adenosine receptor A2a (Homo sapiens, UniProt P29274). Put plainly: Displacement of [3H]CGS21680 from human recombinant adenosine A2a receptor expressed in HEK293 cells at 10 uM by liquid scintillation counting. The format is cell-based. (In general: Loss of bound radioactivity is the signal in a displacement assay; it reports binding, not function.)
T2 sequence (P29274 whole entry): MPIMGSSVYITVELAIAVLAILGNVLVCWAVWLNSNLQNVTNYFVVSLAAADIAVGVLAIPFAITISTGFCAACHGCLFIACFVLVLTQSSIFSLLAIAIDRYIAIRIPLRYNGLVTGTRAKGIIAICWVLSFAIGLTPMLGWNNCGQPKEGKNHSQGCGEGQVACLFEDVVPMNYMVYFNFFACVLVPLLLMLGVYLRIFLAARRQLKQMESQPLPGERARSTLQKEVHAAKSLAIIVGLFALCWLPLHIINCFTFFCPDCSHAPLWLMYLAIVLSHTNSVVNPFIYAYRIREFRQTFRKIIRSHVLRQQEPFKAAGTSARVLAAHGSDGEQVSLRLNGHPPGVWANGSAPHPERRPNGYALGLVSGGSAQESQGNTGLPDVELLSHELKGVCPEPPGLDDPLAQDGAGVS
The target in experiment [3] is T3, Adenosine receptor A3 (Homo sapiens, UniProt P0DMS8).
T3 sequence (P0DMS8 whole entry): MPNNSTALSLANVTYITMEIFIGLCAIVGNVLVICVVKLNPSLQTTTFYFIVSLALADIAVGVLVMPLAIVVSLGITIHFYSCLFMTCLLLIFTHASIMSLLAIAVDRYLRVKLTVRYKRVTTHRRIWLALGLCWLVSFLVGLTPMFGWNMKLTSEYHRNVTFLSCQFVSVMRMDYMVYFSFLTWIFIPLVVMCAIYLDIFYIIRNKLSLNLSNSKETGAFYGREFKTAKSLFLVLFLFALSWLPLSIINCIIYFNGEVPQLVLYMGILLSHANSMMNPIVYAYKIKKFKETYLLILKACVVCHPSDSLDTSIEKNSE
Put plainly: Displacement of [125I]I-AB-MECA from human recombinant adenosine A3 receptor expressed in CHO cells by liquid scintillation counting.

In experiment [4] the target is T2, Adenosine receptor A2a. Put plainly: Displacement of [3H]CGS21680 from human recombinant adenosine A2a receptor expressed in HEK293 cells by liquid scintillation counting. The class given is cell-based.
The target of experiment [5] is T4, Adenosine receptor A3 (Rattus norvegicus, UniProt P28647).
T4 sequence (P28647 whole entry): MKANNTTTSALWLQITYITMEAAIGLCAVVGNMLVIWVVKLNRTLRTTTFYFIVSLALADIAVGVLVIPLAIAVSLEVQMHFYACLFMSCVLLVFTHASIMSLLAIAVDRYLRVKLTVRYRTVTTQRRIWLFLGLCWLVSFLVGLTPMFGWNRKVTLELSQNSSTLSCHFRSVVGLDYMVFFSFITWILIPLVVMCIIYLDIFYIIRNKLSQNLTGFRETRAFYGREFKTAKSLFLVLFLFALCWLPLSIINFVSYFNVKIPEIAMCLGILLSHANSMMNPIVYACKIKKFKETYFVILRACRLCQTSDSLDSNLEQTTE
Put plainly: Binding affinity to rat adenosine A3 receptor.

Structures are written as SMILES.

The inhibition is how much of the control response was suppressed. Usually Ki stands for a dissociation constant, usually derived from enzyme kinetics or from competition with a known ligand. With `CNc1ncnc2c1ncn2[C@@H]1OC[C@@H](O)[C@H]1O`, the inhibition in experiment [1] amounted to 44%; on Adenosine receptor A2a [2] it was 25%. The inhibitory constant (Ki) at Adenosine receptor A3 [3] was found to be 70.1 nM.
On to `O[C@@H]1[C@H](O)CO[C@H]1n1cnc2c(NCc3cccc(F)c3)ncnc21`, for which the Ki at Adenosine receptor A2a [4] turned out to be 6560 nM; at Adenosine receptor A3 [3] it was 537 nM. Besides, the inhibition in experiment [1] was found to be 36%.
`CNc1nc(Cl)nc2c1ncn2[C@@H]1OC[C@@H](O)[C@H]1O`: the inhibition in experiment [1] came out at 49%; on Adenosine receptor A2a [2] it was 15%. Moreover, at Adenosine receptor A3 [3], the Ki was 37.5 nM.
On to `O[C@@H]1[C@H](O)CO[C@H]1n1cnc2c(NCc3cccc(I)c3)ncnc21`, for which the values for the Ki at Adenosine receptor A2a [4] and at Adenosine receptor A3 [3] were 997 nM and 90.2 nM, respectively.
For `O[C@@H]1[C@H](O)CO[C@H]1n1cnc2c(NCc3cccc(F)c3)nc(Cl)nc21`, the figures for the inhibition (in experiment [1]; on Adenosine receptor A2a [2]) were 43% and 42%, respectively. For the same molecule, the Ki at Adenosine receptor A3 [3] was 284 nM.
On to `O[C@@H]1[C@H](O)CO[C@H]1n1cnc2c(NCc3cccc(Br)c3)nc(Cl)nc21`, for which, at Adenosine receptor A2a [2], the inhibition is 30%. At Adenosine receptor A3 [5], this molecule had a Ki of 82.8 nM.
With `O[C@@H]1[C@H](O)CO[C@H]1n1cnc2c(NCc3cccc(I)c3)nc(Cl)nc21`, the inhibition on Adenosine receptor A2a [2] worked out at 43%.
In the case of `O[C@@H]1[C@H](O)CO[C@H]1n1cnc2c(NCc3cccc(Cl)c3)nc(Cl)nc21`, the Ki at Adenosine receptor A2a [4] came out at 3630 nM; on Adenosine receptor A3 [3], 75 nM.
As to `O[C@@H]1[C@H](O)CO[C@H]1n1cnc2c(NCc3cccc(Cl)c3)ncnc21`, the results for the Ki at Adenosine receptor A2a [4] and at Adenosine receptor A3 [3] were 3410 nM and 76.1 nM, respectively.
In the case of `O[C@@H]1[C@H](O)CO[C@H]1n1cnc2c(NCc3cccc(Br)c3)ncnc21`, the Ki came out at 1400 nM on Adenosine receptor A2a [4] and 59 nM at Adenosine receptor A3 [3].
